The results in this text go back to ChEMBL document CHEMBL5550152, “Design, synthesis and evaluation of novel prostate-specific membrane antigen-targeted aryl [18F]fluorosulfate PET tracers” (Bioorg Med Chem, 2024).

Data set [1] is described as follows: Stability of the compound in PBS buffer measured after 4 hrs by radio-HPLC analysis. The data set is classed as physicochemical.
Data set [2] in a line: Stability in mouse plasma measured after 4 hrs by radio-HPLC analysis. Format: ADME, cell-free.
The nature of data set [3]: Drug uptake in human 22Rv1 cells at 3.7 10^-2MBq measured after 4 hrs relative to control. Format: ADME, cell-based. The conditions noted are these: cwr22r.
Data set [4] is described as follows: Drug uptake in human 22Rv1 cells at 3.7 10^-2MBq pretreated with 2-PMPA for 30 mins followed by compound addition and measured after 4 hr relative to control. Format: ADME, cell-based. The conditions noted are these: cwr22r.
Data set [5] can be described thus: Drug uptake in human 22Rv1 cells at 3.7 10^-2MBq measured after 1 hr. The data set is classed as ADME, cell-based. The conditions noted are these: cwr22r.
The nature of data set [6]: Drug uptake in human 22Rv1 cells at 3.7 10^-2MBq pretreated with 2-PMPA for 30 mins followed by compound addition and measured after 1 hr. The data set is classed as ADME, cell-based. The conditions noted are these: cwr22r.
A short description of data set [7]: Drug uptake in mouse tumor xenografted with human 22Rv1 cells at 7.4 MBq, iv measured after 2 hrs by PET imaging analysis relative to control. Format: ADME, organism-based, Neoplasm, CWR22R. As to conditions: in vivo; call rule not given here.

With `O=C(O)CC[C@H](NC(=O)N[C@@H](CCCCNC(=O)[C@H](Cc1ccc2ccccc2c1)NC(=O)c1ccc(CNC(=O)[C@H](CCC(=O)O)NC(=O)[C@H](CCC(=O)O)NC(=O)c2ccc(OS(=O)(=O)[18F])cc2)cc1)C(=O)O)C(=O)O`, the Stability result in data set [1] and in data set [2] was “Stable” in each case. Moreover, the Drug uptake in data set [3] was 0.65%; in data set [4], 0.14%; in data set [5], “Not Active”; in data set [6] it was “Not Active”; in data set [7] it was 2.68 % ID/g.
